This is an account of results in US20250092033A1, “HETEROAROMATIC NITROGEN-OXIDE COMPOUND, PREPARATION METHOD THEREFOR, AND USE THEREOF” (BEIJING AVISTONE BIOTECHNOLOGY CO., LTD., priority 2021, published 2025).

For one assay, the target named is T1, MET F1200I (Homo sapiens, UniProt P08581, F1200I).
T1 construct: purchased Signalchem M52-12GG/Y767-2
The experiment in a line: Kinase inhibition experiment (HTRF KinEASE-TK kit), mutant MET F1200I. Type of assay: biochemical. To be noted: 10 concentrations, 3-fold dilution. Here is the method:
(§1) The activity of the compounds was determined by detecting the residual amount of ATP after reacting with wild-type or mutant MET protein kinase by using an HTRF KinEASE-TK kit. […]
(§2) The compounds were determined on the selected kinase, the solvent control was set and a total of 10 concentrations were detected, diluted 3-fold, 2 replicates per concentration.
(§3) 1 volume of 5× kinase reaction buffer and 4 volumes of water; 5 mM MgCl2; 1 mM DTT; 1 mM MnCl2; or 2500 nm SEB.
(§4) 1) 10 nl or 4 μlof the diluted compound was transferred to each well of the reaction plate (784075 or 264706, Greiner or Thermo) with a pipette, the reaction plate was sealed with a sealing plate, and centrifuged at 1000 for 1 minute.
(§5) 2) 2× MET was prepared from 1× enzyme reaction buffer, 5 μl or 2 μl kinase was added to each well of the reaction plate, the reaction plate was sealed with a sealing plate, centrifuged at 1000 g for 30 seconds and incubated at room temperature for 10 min.
(§6) 3) a mixed solution of 2× TK-substrate-biotin and ATP were prepared from 1× enzyme reaction buffer solution, 5 μl or 2 μl TK-substrate-biotin/ATP of the mixed solution was added into a reaction plate, the reaction plate was sealed with a sealing plate, centrifuged at 1000 g for 30 seconds and reacted for 50 minutes or 10 minutes at room temperature.
(§7) 4) a mixed solution of 4× or 2× Sa-XL 665 and TK-antibody-Cryptate were prepared from HTRF detection buffer, 5 or 10 μl of the mixed solution of Sa-XL 665 and TK-antibody-Cryptate was added into each well, centrifuged at 1000 g for 30 seconds, and reacted at room temperature for 1 h.
(§8) 5) the fluorescence signals at 615 nm (cryptate) and 665 nm (XL665) were read with Envision 2104 or TECAN.
(§9) The data was analyzed using GraphPad Prism 6.0 or 7 software, and the dose-response curve was fitted with nonlinear S-curve regression, and the IC50 value was calculated therefrom.
(§10) Enzyme Inhibition Percent (%)=100-(Signalmpd-SignalAve_PC)/(SignalAve_VC-SignalAve_PC)×100
(In TR-FRET formats the signal depends on donor and acceptor labels being close together.)

The target of assay [1] is T2, wild type (WT) MET kinase (Homo sapiens, UniProt P08581).
T2 construct: purchased Carna 08-151
The experiment in a line: Kinase inhibition experiment (HTRF KinEASE-TK kit), wild-type MET. Type of assay: biochemical. Particulars: 10 concentrations, 3-fold dilution. As for the experimental part:
as §1, §2, §3, §4, §5, §6, §7, §8, §9, §10

The target of another assay is T3, MET D1228N (Homo sapiens, UniProt P08581, D1228N).
T3 construct: purchased Signalchem M52-12IG
Put plainly: Kinase inhibition experiment (HTRF KinEASE-TK kit), mutant MET D1228N. Format: biochemical. Particulars: 10 concentrations, 3-fold dilution. Here is the method: as §1, §2, §3, §4, §5, §6, §7, §8, §9, §10

In another assay the test system is H1993 cell line. Put plainly: Cell proliferation inhibition experiment (CellTiter-Glo), H1993. Type of assay: cell-based. Particulars: Homo sapiens, NCI-H1993, CTG, 72 h. Here is the method:
CellTiter-Glo™ live cell detection kit adopts luciferase as the detection substance, and the luciferase needs the participation of ATP in the luminescence process. CellTiter-Glo™ reagent was added into the cell culture medium and the luminescence value was measured. The light signal is in direct proportion to the amount of ATP in the system, ATP is in direct correlation with number of living cells. Therefore, the proliferation of cells can be detected by detecting the content of ATP with CellTiter-Glo kit.
In the experiment, the proliferation inhibition effect of the prepared compounds on tumor cell lines Hs746T, EBC-1 and H1993 was measured by a celltiter-glo (CTG) method, and 50% inhibition concentration IC50 was calculated.
The compounds were determined on the selected cells, the solvent control was set and a total of 10 concentrations were detected, 2 replicates per concentration.
a) Cells in the logarithmic growth phase were harvested and counted by a […]. The cell viability was detected by a trypan blue exclusion method to ensure that the cell viability was over 90%.
b) The cell concentration was adjusted; 30 μL of cell suspension was added to a 384-well plate respectively.
c) Cells in a 384-well plate were incubated overnight at 37° C., 5% CO2 and 95% humidity.
a) 10 times of drug solution was prepared with the highest concentration of 10 mM, 10 concentrations and 3 times dilution, 10 μL of drug solution was added into each well of a 384-well plate inoculated with cells, and three multiple wells were arranged for each drug concentration. DMSO was the blank control.
b) The cells in the 384-well plate were incubated for a further 72 h at 37° C., 5% CO2 and 95% humidity before CTG analysis.
a) The CTG reagent was melted and the cell plate was equilibrated to room temperature for 30 min.
b) An equal volume of CTG solution was added to each well.
c) Cells were lysed by shaking on an orbital shaker for 5 minutes.
d) The cell plate was left at room temperature for 20 minutes to stabilize the luminescence signal.
e) The cold light value was read.
The data was analyzed by GraphPad Prism 8 software, and the dose-response curve was fitted with nonlinear S-curve regression, and the IC50 value was calculated therefrom.
Cell viability(%)=(Lumdrugs to be tested-Lumblank control)/(Lumcell control-Lumblank control)×100%.
Background: In ATP-based viability assays light output follows the ATP content of the culture.

SMILES strings stand for the structures.

A word on the IC50: it is the concentration at which inhibition is half-maximal. Low readings indicate inhibition by little substance, high ones a need for much substance.

T2 sequence (P08581 25-1390): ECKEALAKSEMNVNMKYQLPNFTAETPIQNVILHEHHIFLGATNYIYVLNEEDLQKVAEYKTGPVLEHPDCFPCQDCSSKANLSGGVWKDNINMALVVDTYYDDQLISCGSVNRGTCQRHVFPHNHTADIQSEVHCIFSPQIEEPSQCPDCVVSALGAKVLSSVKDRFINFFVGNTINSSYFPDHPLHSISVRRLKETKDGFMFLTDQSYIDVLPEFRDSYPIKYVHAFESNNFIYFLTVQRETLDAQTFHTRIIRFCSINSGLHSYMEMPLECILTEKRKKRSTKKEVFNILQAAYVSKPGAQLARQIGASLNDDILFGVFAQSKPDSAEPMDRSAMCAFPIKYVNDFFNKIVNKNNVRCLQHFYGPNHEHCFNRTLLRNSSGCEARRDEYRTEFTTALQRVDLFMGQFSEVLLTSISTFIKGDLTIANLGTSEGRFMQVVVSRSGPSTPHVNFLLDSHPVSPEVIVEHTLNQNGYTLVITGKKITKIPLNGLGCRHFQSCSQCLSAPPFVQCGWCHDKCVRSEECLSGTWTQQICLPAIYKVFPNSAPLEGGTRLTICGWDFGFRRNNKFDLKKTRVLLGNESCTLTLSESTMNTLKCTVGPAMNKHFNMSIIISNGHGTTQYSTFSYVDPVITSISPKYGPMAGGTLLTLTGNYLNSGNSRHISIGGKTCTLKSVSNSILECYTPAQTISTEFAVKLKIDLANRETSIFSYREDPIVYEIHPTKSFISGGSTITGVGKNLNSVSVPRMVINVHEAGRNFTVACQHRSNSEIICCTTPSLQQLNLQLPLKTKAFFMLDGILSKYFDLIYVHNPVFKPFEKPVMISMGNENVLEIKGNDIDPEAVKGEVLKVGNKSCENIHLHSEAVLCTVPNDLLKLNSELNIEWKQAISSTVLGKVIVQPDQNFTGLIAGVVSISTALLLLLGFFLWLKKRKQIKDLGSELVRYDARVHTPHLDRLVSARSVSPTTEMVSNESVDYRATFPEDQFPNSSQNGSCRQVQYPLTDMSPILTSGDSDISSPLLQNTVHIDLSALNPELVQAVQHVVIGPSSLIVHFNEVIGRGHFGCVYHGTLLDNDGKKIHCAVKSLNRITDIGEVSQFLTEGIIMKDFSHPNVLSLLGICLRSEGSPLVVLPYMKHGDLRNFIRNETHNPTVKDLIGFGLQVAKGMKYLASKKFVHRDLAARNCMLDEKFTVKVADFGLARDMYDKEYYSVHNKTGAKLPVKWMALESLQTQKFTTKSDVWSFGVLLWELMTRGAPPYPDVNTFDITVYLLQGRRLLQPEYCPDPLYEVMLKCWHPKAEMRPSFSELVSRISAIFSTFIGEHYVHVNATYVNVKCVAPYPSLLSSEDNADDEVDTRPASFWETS
T3 sequence (P08581 25-1390 D1228N): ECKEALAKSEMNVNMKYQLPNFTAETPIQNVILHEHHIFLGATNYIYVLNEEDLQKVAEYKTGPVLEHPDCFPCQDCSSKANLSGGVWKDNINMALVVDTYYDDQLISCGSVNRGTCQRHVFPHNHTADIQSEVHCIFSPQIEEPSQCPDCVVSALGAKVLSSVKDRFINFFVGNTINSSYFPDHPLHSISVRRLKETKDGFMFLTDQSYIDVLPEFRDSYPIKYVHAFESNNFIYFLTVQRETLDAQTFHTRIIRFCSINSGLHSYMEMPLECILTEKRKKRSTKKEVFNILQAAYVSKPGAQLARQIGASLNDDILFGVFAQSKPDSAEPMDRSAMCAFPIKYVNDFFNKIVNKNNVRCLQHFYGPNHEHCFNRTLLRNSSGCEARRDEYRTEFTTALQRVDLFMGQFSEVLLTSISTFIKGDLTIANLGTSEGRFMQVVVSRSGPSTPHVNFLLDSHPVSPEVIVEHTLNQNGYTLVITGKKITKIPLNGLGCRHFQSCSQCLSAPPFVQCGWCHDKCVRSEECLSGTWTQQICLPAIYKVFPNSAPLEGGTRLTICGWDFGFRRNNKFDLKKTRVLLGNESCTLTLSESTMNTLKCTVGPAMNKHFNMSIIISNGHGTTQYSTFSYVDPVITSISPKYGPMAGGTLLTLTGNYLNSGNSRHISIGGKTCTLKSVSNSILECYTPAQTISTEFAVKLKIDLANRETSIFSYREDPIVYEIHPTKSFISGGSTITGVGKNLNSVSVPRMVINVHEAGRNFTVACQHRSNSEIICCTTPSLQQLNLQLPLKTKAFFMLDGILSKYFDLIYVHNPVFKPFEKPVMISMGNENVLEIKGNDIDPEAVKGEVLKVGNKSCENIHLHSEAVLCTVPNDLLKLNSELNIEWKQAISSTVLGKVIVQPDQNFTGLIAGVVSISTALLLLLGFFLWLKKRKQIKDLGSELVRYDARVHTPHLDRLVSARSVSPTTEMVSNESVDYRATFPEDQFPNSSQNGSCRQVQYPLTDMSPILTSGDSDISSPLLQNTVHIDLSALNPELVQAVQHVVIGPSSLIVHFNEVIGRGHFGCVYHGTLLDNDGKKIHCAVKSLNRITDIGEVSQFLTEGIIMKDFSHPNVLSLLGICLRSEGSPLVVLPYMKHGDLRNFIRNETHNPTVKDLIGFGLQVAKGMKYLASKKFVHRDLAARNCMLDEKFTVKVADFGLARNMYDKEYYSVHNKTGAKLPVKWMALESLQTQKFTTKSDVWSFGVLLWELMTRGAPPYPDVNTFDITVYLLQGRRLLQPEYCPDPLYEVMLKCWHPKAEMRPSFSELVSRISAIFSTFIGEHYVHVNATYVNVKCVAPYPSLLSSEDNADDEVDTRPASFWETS
T1 sequence (P08581 25-1390 F1200I): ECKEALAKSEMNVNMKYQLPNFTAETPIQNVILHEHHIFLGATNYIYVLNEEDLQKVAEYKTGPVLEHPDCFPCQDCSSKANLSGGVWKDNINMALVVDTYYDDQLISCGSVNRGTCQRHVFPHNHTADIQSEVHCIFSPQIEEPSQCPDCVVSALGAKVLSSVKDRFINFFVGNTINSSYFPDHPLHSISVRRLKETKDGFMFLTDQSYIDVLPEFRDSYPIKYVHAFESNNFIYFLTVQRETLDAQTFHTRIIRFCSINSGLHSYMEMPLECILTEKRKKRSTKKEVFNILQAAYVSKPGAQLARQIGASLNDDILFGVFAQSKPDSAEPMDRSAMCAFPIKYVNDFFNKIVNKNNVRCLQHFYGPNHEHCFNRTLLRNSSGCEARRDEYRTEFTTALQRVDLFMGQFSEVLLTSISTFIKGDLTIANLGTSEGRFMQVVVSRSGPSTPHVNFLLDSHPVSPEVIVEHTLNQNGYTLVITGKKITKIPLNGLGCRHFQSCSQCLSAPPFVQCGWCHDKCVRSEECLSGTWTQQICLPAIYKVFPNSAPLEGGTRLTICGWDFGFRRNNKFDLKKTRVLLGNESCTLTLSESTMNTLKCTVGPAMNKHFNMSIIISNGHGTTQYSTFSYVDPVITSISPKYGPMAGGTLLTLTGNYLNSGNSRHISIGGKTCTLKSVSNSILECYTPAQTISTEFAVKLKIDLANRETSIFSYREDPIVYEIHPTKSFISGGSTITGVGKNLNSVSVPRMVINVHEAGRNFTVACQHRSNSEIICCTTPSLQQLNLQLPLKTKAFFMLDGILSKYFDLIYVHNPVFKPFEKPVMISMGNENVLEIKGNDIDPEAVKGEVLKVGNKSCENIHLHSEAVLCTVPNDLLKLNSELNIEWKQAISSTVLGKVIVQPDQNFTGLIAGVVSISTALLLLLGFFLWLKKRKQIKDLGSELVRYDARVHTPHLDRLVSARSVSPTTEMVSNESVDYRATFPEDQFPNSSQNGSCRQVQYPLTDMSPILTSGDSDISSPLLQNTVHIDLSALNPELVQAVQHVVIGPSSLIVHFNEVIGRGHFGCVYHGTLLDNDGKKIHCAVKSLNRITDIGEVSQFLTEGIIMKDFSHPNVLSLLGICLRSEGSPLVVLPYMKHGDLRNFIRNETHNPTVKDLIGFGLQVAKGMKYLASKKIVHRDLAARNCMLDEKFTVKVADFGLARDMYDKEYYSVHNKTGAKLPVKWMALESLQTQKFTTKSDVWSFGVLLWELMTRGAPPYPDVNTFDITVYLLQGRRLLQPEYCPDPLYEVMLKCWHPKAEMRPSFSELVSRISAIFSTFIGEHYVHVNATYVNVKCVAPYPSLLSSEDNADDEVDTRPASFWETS

As to `CC[C@H](CO)Nc1n[nH]c2nccc(Oc3ccc(NC(=O)c4cccc(-c5ccc(F)cc5)[n+]4[O-])cc3F)c12` [Final product 5], the half-inhibitory concentration (IC50) at MET F1200I worked out at 10.8 nM; in assay [1], 5.2 nM; at MET D1228N it was 12.8 nM; with H1993 cell line, 33 nM.

As to `O=C(Nc1ccc(Oc2ccnc3[nH]nc(NCC(CO)CO)c23)c(F)c1)c1cccc(-c2ccc(F)cc2)[n+]1[O-]` [Final product 17], the half-maximal inhibitory concentration (IC50) against MET F1200I came to 5.8 nM; in assay [1], 1.4 nM; against MET D1228N, 7.5 nM; in the assay on H1993 cell line, 68.4 nM.

As to `O=C(Nc1ccc(Oc2ccnc3[nH]nc(N4CC(CO)C4)c23)c(F)c1)c1cccc(-c2ccc(F)cc2)[n+]1[O-]` [Final product 25], the IC50 at MET F1200I came to 4.3 nM; in assay [1], 1.9 nM; on MET D1228N, 20.5 nM; in the assay on H1993 cell line it was 62.2 nM.

For the compound `O=C(Nc1ccc(Oc2ccnc3[nH]nc(N4CCC(F)(CO)CC4)c23)c(F)c1)c1cccc(-c2ccc(F)cc2)[n+]1[O-]` [Final product 30], the half-inhibitory concentration (IC50) was 5.5 nM at MET F1200I, 1.7 nM in assay [1], 11.2 nM at MET D1228N and 50.2 nM in the assay with H1993 cell line.

For the compound `CC(O)C1CCN(c2n[nH]c3nccc(Oc4ccc(NC(=O)c5cccc(-c6ccc(F)cc6)[n+]5[O-])cc4F)c23)CC1` (centres unmarked) [Final product 31], the IC50 against MET F1200I was determined as 7.9 nM; in assay [1] it was 3 nM; against MET D1228N it was 40.7 nM; in the assay with H1993 cell line, 35 nM.

With `CC(O)C(CO)CNc1n[nH]c2nccc(Oc3ccc(NC(=O)c4cccc(-c5ccc(F)cc5)[n+]4[O-])cc3Cl)c12` (centres unmarked) [Final product 102], the IC50 against MET F1200I was 2.1 nM; in assay [1], 1 nM; against MET D1228N it was 6.3 nM.

`O=C(Nc1ccc(Oc2ccnc3[nH]nc(NC4CC(CO)C4)c23)c(Cl)c1)c1cccc(-c2ccc(F)cc2)[n+]1[O-]` (centres unmarked) [Final product 113]: the IC50 on MET F1200I was 9.2 nM; in assay [1], 3.3 nM; at MET D1228N, 22.5 nM.

Turning to `O=C(Nc1ccc(Oc2ccnc3[nH]nc(N[C@H]4CC[C@@H](O)C4)c23)c(Cl)c1)c1cccc(-c2ccc(F)cc2)[n+]1[O-]` [Final product 114], the IC50 at MET F1200I was found to be 10.7 nM; in assay [1], 5.1 nM; at MET D1228N it was 18.7 nM.

On to `O=C(Nc1ccc(Oc2ccnc3[nH]nc(N[C@H]4COC[C@@H]4O)c23)c(Cl)c1)c1cccc(-c2ccc(F)cc2)[n+]1[O-]` [Final product 115], for which the IC50 amounted to 6 nM against MET F1200I, 0.8 nM in assay [1] and 10.9 nM at MET D1228N.

For `C[C@H](CO)Nc1n[nH]c2nccc(Oc3ccc(NC(=O)c4cccc(-c5ccc(Cl)cc5)[n+]4[O-])cc3Cl)c12` [Final product 116], the IC50 is 10.7 nM on MET F1200I, 4.6 nM in assay [1] and 28.7 nM against MET D1228N.

On to `O=C(Nc1ccc(Oc2ccnc3[nH]nc(N[C@H]4CC[C@@H](O)C4)c23)c(Cl)c1)c1ccc(F)c(-c2ccc(F)cc2)[n+]1[O-]` [Final product 119], for which the IC50 at MET F1200I was found to be 9.8 nM; in assay [1] it was 18 nM; against MET D1228N, 30.2 nM.

For the compound `O=C(Nc1ccc(Oc2ccnc3[nH]nc(N[C@H]4COC[C@@H]4O)c23)c(Cl)c1)c1ccc(F)c(-c2ccc(F)cc2)[n+]1[O-]` [Final product 120], the IC50 amounted to 14.5 nM at MET F1200I, 1.3 nM in assay [1] and 17.6 nM against MET D1228N.

For the compound `O=C(Nc1ccc(Oc2ccnc3[nH]nc(N[C@H]4COC[C@@H]4O)c23)c(Cl)c1)c1ccc(Cl)c(-c2ccc(F)cc2)[n+]1[O-]` [Final product 123], the concentration for half-maximal inhibition (IC50) against MET F1200I was determined as 10 nM; in assay [1], 1 nM; against MET D1228N, 30.1 nM.

Regarding `Cc1ccc(C(=O)Nc2ccc(Oc3ccnc4[nH]nc(N[C@H]5COC[C@@H]5O)c34)c(Cl)c2)[n+]([O-])c1-c1ccc(F)cc1` [Final product 129], the half-inhibitory concentration (IC50) at MET F1200I amounted to 8.8 nM; in assay [1], 0.6 nM; against MET D1228N, 21.1 nM.

Consider `[2H]C([2H])([2H])c1ccc(C(=O)Nc2ccc(Oc3ccnc4[nH]nc(N[C@H](C)CO)c34)c(Cl)c2)[n+]([O-])c1-c1ccc(F)cc1` [Final product 134], for which the IC50 amounted to 28.3 nM against MET F1200I, 3.3 nM in assay [1] and 15.5 nM at MET D1228N.

As for `C[C@H](CO)Nc1n[nH]c2nccc(Oc3ccc(NC(=O)c4ccc(OCC(F)F)c(-c5ccc(F)cc5)[n+]4[O-])cc3Cl)c12` [Final product 141], the figures for the IC50 (against MET F1200I; in assay [1]; against MET D1228N) were 33 nM, 1.9 nM and 26.3 nM, respectively.

Regarding `C[C@H](CO)Nc1n[nH]c2nccc(Oc3ccc(NC(=O)c4ccc(OCC(F)(F)F)c(-c5ccc(F)cc5)[n+]4[O-])cc3Cl)c12` [Final product 142], the IC50 on MET F1200I amounted to 33 nM; in assay [1] it was 18 nM; against MET D1228N, 45.1 nM.

For the compound `C[C@H](CO)Nc1n[nH]c2nccc(Oc3ccc(NC(=O)c4ccc(F)c(-c5ccc(F)cc5)[n+]4[O-])c(F)c3)c12` [Final product 155], the IC50 was 13.2 nM at MET F1200I, 5.6 nM in assay [1] and 27.4 nM against MET D1228N.

For the compound `C[C@H](CO)Nc1n[nH]c2nccc(Oc3cc(F)c(NC(=O)c4ccc(Cl)c(-c5ccc(F)cc5)[n+]4[O-])cc3F)c12` [Final product 157], the results for the IC50 (against MET F1200I; in assay [1]; on MET D1228N) were 17.5 nM, 1.7 nM and 46.2 nM, respectively.

`C[C@H](CO)Nc1n[nH]c2nccc(Oc3cc(F)c(NC(=O)c4ccc(Cl)c(-c5ccc(F)cc5)[n+]4[O-])cc3Cl)c12` [Final product 158]: the IC50 against MET F1200I was found to be 15.9 nM; in assay [1] it was 2.5 nM; at MET D1228N it was 29.4 nM.

As to `Cc1ccc(C(=O)Nc2ccc(Oc3ccnc4[nH]nc(N[C@H](C)CO)c34)cc2F)[n+]([O-])c1-c1ccc(F)cc1` [Final product 160], the IC50 was 12.9 nM at MET F1200I, 5.7 nM in assay [1] and 19.6 nM on MET D1228N.

For `C[C@H](CO)Cn1ccc2ncnc(Oc3ccc(NC(=O)c4cccc(-c5ccc(F)cc5)[n+]4[O-])cc3F)c21` [Final product 169, (S)-2-((3-fluoro-4-((5-(3-hydroxy-2-methylpropyl)-5H-pyrrolo[3,2-d]pyrimidin-4-yl)oxy)phenyl)carbamoyl)-6-(4-fluorophenyl)pyridine 1-oxide], the IC50 at MET F1200I came out at 2.1 nM; in assay [1] it was 1.8 nM; on MET D1228N, 6.9 nM.

As for `C[C@@H](CO)Cn1ccc2ncnc(Oc3ccc(NC(=O)c4cccc(-c5ccc(F)cc5)[n+]4[O-])cc3F)c21` [Final product 170, (R)-2-((3-fluoro-4-((5-(3-hydroxy-2-methylpropyl)-5H-pyrrolo[3,2-d]pyrimidin-4-yl)oxy)phenyl)carbamoyl)-6-(4-fluorophenyl)pyridine 1-oxide], the IC50 at MET F1200I came out at 8.5 nM; in assay [1], 4.2 nM; on MET D1228N it was 16.2 nM.
